According to US20260293901A1 (priority 2023, published 2026):

How the values were obtained:
Plasmopara viticola = type: in vivo; conditions: 200 ppm; grape vine leaf disks, preventative; inoculated 1 day after application; assessed 6-8 days after application
Phytophthora infestans = type: in vivo; conditions: 200 ppm; tomato leaf disks, preventative; inoculated 1 day after application; assessed 5-7 days after application
Pythium ultimum = experiment: Pythium ultimum/Liquid Culture (Seedling Damping Off); type: cell-based; conditions: Globisporangium ultimum, read-out: control of Pythium ultimum (inhibition of growth determined photometrically)

Compound | control of Plasmopara viticola (percent disease control compared to untreated) (Plasmopara viticola) | control of Phytophthora infestans (percent disease control compared to untreated) (Phytophthora infestans) | inhibition at 20 ppm (Pythium ultimum)
COC(=O)Nc1ccc(-c2cnc3c(C)cc(C(=O)N(C)c4ccc(F)c(C)c4)nn23)cn1 [Compound 1, methyl N-[5-[6-[(4-fluoro-3-methyl-phenyl)-methyl-carbamoyl]-8-methyl-imidazo[1,2-b]pyridazin-3-yl]-2-pyridyl]carbamate] | at least 80% | – | –
COC(=O)Nc1ccc(-c2cnc3c(C)cc(C(=O)N4CCCc5cc(F)ccc54)nn23)cn1 [Compound 2, methyl N-[5-[6-(6-fluoro-3,4-dihydro-2H-quinoline-1-carbonyl)-8-methyl-imidazo[1,2-b]pyridazin-3-yl]-2-pyridyl]carbamate] | – | at least 80% | –
COC(=O)Nc1ccc(-c2cnc3c(C)cc(C(=O)N(C)c4ccc(F)cc4)nn23)cn1 [Compound 3, methyl N-[5-[6-[(4-fluorophenyl)-methyl-carbamoyl]-8-methyl-imidazo[1,2-b]pyridazin-3-yl]-2-pyridyl]carbamate] | at least 80% | at least 80% | –
COC(=O)Nc1ccc(-c2cnc3c(C)cc(C(=O)N(C)c4ccc(F)c(OC)c4)nn23)cn1 [Compound 4, methyl N-[5-[6-[(4-fluoro-3-methoxy-phenyl)-methyl-carbamoyl]-8-methyl-imidazo[1,2-b]pyridazin-3-yl]-2-pyridyl]carbamate] | at least 80% | at least 80% | ≥ 80%
COC(=O)Nc1ccc(-c2cnc3ccc(C(=O)N(C)c4ccc(F)c(OC)c4)nn23)cn1 [Compound 8, methyl N-[5-[6-[(4-fluoro-3-methoxy-phenyl)-methyl-carbamoyl]imidazo[1,2-b]pyridazin-3-yl]-2-pyridyl]carbamate] | at least 80% | at least 80% | ≥ 80%
